≈ marks a conversion by molar mass, not a printed value.
System: C. albicans (ATCC-90028)
Assay: MIC by colony-forming assay
Assay type: cell-based
Settings: Candida albicans, ATCC90028, 48 h

MIC: 64 µg/mL (≈ 96.1 µM)
SMILES: C[C@@H]1C/C=C/C=C/C=C/C=C/[C@H](O[C@@H]2O[C@H](C)[C@@H](O)[C@H](N)[C@@H]2O)C[C@@H]2O[C@](O)(C[C@@H](O)C[C@H]3O[C@@H]3/C=C/C(=O)O1)C[C@H](O)[C@H]2C(=O)O [natamycin]
